The target of one data set is T1, eIF4E L85R (Homo sapiens, UniProt P06730, L85R).
T1 construct: expressed in transfected cells; host or cells: H1299 eIF4E-dTAG clone C3-1, eIF4E-dTAG depleted with dTAG^V-1 before compound
Briefly: CETSA in eIF4E-dTAG model expressing L85R eIF4E. Format: cell-based. The note with it: intact cells. How it is done: Cells (1.5 × 10^6 cells) were plated into 75 cm^2 flasks and allowed to attached overnight. After treatment with compound 4 or 5 for 6 h, they were harvested by trypsinisation and washed x2 in ice cold PBS. Cells were resuspended in 1 ml of cold PBS supplemented with protease and phosphatase inhibitors (Fisher Scientific, cat#1861281). Resuspended cells were divided into 100 μl aliquots and centrifuged at 300 x g for 3 min at 4 °C. Following centrifugation, 75μl of supernatant was removed and cells resuspended in the remaining volume. Cell suspensions were heated at 40.9, 43.7, 48.1, 52.9, 57.6, 62.4, 67.2, 71.9, 76.3 and 79.1 °C for 3 mins followed by cooling at 20 °C for 3 min[25]. Suspensions were freeze-thawed twice using liquid nitrogen. Soluble fractions were separated from cell debris by centrifuging at 20,000 x g for 30 min at 4 °C. Samples were then analysed by Western Blot.
Supplementary Fig. 18. Comparison of compound 4 binding to wild-type or […]
Cells were treated with dTAGV-1 (1 μM) for 16 hr. Compound 4 (10 μM) or compound 5 (10 μM) was then added for 6 hrs.
Vi nculin was used for loading control. Blots are from one biological repeat. b […]
was used as loading control . c Cells were treated with dTAGV -1 (1 μM) for 16 hr.
Compound 4 (50 μM) or compound 5 (50 μM) was then added for 6 hrs. […]
following incubation at 48.1 °C. Vinculin was used for loaing control. All blots are […]

Data set [1] can be described thus: Plasma protein binding, rapid equilibrium dialysis. It is filed as in vitro ADME. The note with it: human plasma, 1 µM, 16 hrs. How it is done:
Measurement of aqueous kinetic solubility at pH 7.5
Solubility was measured in 50 mM HEPES, 100 mM NaCl (15% D2O, 85% H2O) in the presence of 1 mM TCEP at pH 7.5. Samples were prepared at 50 mM in DMSO-d6, diluted x 50 into buffer affording nominal concentrations of 1 mM and analysed by 1H quantitative NMR. Spectra were acquired at 300K in 5 mm tubes on a 400 MHz Bruker Avance III HD spectrometer equipped with a BBO-F probe using water suppression (presat/Watergate). A 5 mM sample of 4-hydroxybenzoic acid was used as the qNMR standard. The raw data files were processed using MNova with qNMR […]
Caco-2 permeability Assay
The permeability of Compound 4 was assessed using the CacoReady system.
Compound 4 and control compounds (propranolol, antipyrine, and vinblastine) were incubated at a final concentration of 10 µM in duplicate to either the apical (180 µL) of the monolayer to measure apical to basolateral transport (A > B) across the cell barrier or to the basolateral side (750 µL) to measure the basolateral to apical transport (B > A). […]
Plasma protein binding measured using the rapid equilibrium dialysis (RED) device system. […] Percent bound was calculated as the ([plasma cmpt] / [plasma cmpt + […]

Data set [2] is classed as physicochemical. The source says: Chrom kinetic Plasma Caco-2 microsomal
Cmpd Chemical MW LogD solubility protein permeability intrinsic
# Structure (Da) (pH binding (Papp x10-6 clearance […]
Supplementary notes Table Physicochemical and in vitro pharmacokinetic properties of compound 4.
Experimental procedures for the measurement of ChromLogD, aqueous solubility, plasma protein binding, Caco2 permeability and microsomal […]
Determination of Chromatographic LogD (ChromLogD7.4)
Chromatographic hydrophobicity index (CHI) values were measured using reversed phase HPLC column (PolymerX RP-1, Phenomenex, UK) with a fast acetonitrile gradient at starting mobile phase of pH = 7.4. CHI values are derived directly from the gradient retention times by using a calibration line obtained for standard compounds.
The CHI value approximates to the volume % organic concentration when the compound elutes. CHI is linearly transformed into ChromLogD7.4 by least-square fitting of experimental CHI values to calculated C logP values for over 20,000 research compounds using the following formula: ChromLogD7.4 = 0.0857CHI-2.001.
(1 picture or pasted object on this page, not shown here)

T1 sequence (P06730 whole entry L85R): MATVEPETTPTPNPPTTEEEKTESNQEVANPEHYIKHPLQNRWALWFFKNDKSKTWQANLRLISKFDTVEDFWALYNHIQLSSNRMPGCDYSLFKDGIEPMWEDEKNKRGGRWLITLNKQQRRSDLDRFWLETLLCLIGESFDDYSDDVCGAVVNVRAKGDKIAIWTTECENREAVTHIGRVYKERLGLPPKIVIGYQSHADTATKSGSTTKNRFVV

For `CC[C@H](O[C@H](C)CO)c1ccc(-c2ccccc2F)cc1NCCO` [Compound 4], the “thermal stabilisation of L85R eIF4E” value at eIF4E L85R was “showed evidence for compound 4 binding”. This compound also registered a Plasma protein binding in data set [1] of 98.9%. The “Chrom LogD (pH 7.5)” value in data set [2] is on record as 4.6.

The record behind these values is paper PMC11868579 (Nature Communications, 2024).
